From patent US10413502B2, “Cosmetic use of a peppermint extract” (LVMH RECHERCHE, priority 2015, dated 2019) come the findings set out here.

The subject of this test is gap junctions between keratinocytes. As to the kind of experiment: Transfer of the dye lucifer yellow between keratinocytes via gap junctions. In kind it is cell-based. As to conditions: substance alone.

Molecules are shown by their SMILES.

In the case of `C[C@H](NC(=O)Cc1cc(F)cc(F)c1)C(=O)N[C@H](C(=O)OC(C)(C)C)c1ccccc1` [DAPT, N—[N-(3,5-difluorophenacetyl)-L-alanyl]-S-phenylglycine t-butyl ester], the “diffusion of lucifer yellow between keratinocytes (exchanges via gap junctions)” value is listed as “greatly reduced”.
